Values after ≈ are worked out from the molar mass of the structure shown. Read-outs that look alike come from different tables or passages of the source.
Experiments:
Type in all cases: cell-based
[1] = test system: Mycosphaerella zeae-maydis; assay: Broth microdilution MIC of individual antifungals; settings: individual antifungal, 25% PDB, about 25° C., 72 hours, range over N independent triplicate studies; for MIC: Didymella maydis
Alternaria solani = assay: Broth microdilution MIC of individual antifungals; settings: individual antifungal, 25% PDB, about 25° C., 72 hours, range over N independent triplicate studies; for MIC: read-out: Independent MIC
Aspergillus flavus = assay: Broth microdilution MIC of individual antifungals; settings: for MIC: read-out: Independent MIC
Aspergillus fumigatus = assay: Broth microdilution MIC of individual antifungals; settings: individual antifungal, 25% PDB, about 25° C., 72 hours, range over N independent triplicate studies; for MIC: read-out: Independent MIC
Aspergillus niger = assay: Broth microdilution MIC of individual antifungals; settings: individual antifungal, 25% PDB, about 25° C., 72 hours, range over N independent triplicate studies; for MIC: read-out: Independent MIC
Sclerotinia homoeocarpa = assay: Broth microdilution MIC of individual antifungals; settings: Sclerotinia homoeocarpa, individual antifungal, 25% PDB, about 25° C., 72 hours, range over N independent triplicate studies; for MIC: Clarireedia homoeocarpa, read-out: Independent MIC
Botrytis cinerea 10-1728 = assay: Broth microdilution MIC of individual antifungals; settings: Botrytis cinerea 10-1728, individual antifungal, 25% PDB, about 25° C., 72 hours, range over N independent triplicate studies; for MIC: 101728, read-out: Independent MIC
Candida albicans = assay: Broth microdilution MIC of individual antifungals; settings: individual antifungal, 25% PDB, about 25° C., 72 hours, range over N independent triplicate studies; for MIC: read-out: Independent MIC
Fusarium graminearum = assay: microbe, parasite or virus in culture; settings: for MIC: 72 h, read-out: Independent MIC
Fusarium verticillioides = assay: Broth microdilution MIC of individual antifungals; settings: individual antifungal, 25% PDB, about 25° C., 72 hours, range over N independent triplicate studies; for MIC: read-out: Independent MIC
[2] = test system: Fusarium solani f. sp. pisi (MP VI); assay: Broth microdilution MIC of individual antifungals; settings: Fusarium solani f. sp. pisi (MP VI), individual antifungal, 25% PDB, about 25° C., 72 hours, range over N independent triplicate studies; for MIC: read-out: Independent MIC
Rhizopus sp. = assay: Broth microdilution MIC of individual antifungals; settings: Rhizopus sp., individual antifungal, 25% PDB, about 25° C., 72 hours, range over N independent triplicate studies; for MIC: Rhizopus, 72 h, read-out: Independent MIC
Mucor sp. = assay: Broth microdilution MIC of individual antifungals; settings: individual antifungal, 25% PDB, about 25° C., 72 hours, range over N independent triplicate studies
Magnaporthe grisea = assay: microbe, parasite or virus in culture; settings: for MIC: Pyricularia oryzae, 72 h, read-out: Independent MIC
Phytophthora pini = assay: Broth microdilution MIC of individual antifungals; settings: individual antifungal, 25% PDB, about 25° C., 72 hours, range over N independent triplicate studies
Rhizoctonia solani = assay: Broth microdilution MIC of individual antifungals; settings: individual antifungal, 25% PDB, about 25° C., 72 hours, range over N independent triplicate studies
Penicillium chrysogenum = assay: Broth microdilution MIC of individual antifungals; settings: individual antifungal, 25% PDB, about 25° C., 72 hours, range over N independent triplicate studies; for MIC: read-out: Independent MIC
[3] = test system: Colletotrichum orbiculare; assay: Broth microdilution MIC of individual antifungals; settings: individual antifungal, 25% PDB, about 25° C., 72 hours, range over N independent triplicate studies; for MIC: read-out: Independent MIC
Aureobasidium pullulans = assay: Broth microdilution MIC of individual antifungals; settings: individual antifungal, 25% PDB, about 25° C., 72 hours, range over N independent triplicate studies, read-out: Independent MIC
Botrytis cinerea B17 = assay: Broth microdilution MIC of individual antifungals; settings: Botrytis cinerea B17, individual antifungal, 25% PDB, about 25° C., 72 hours, range over N independent triplicate studies; for MIC: read-out: Independent MIC
Fusarium oxysporum ST33 = assay: Broth microdilution MIC of individual antifungals; settings: individual antifungal, 25% PDB, about 25° C., 72 hours, range over N independent triplicate studies
[4] = test system: Fusarium oxysporum f. sp. lycopersici; assay: Broth microdilution MIC of individual antifungals; settings: individual antifungal, 25% PDB, about 25° C., 72 hours, range over N independent triplicate studies
Stachybotrys chartarum = assay: Broth microdilution MIC of individual antifungals; settings: individual antifungal, 25% PDB, about 25° C., 72 hours, range over N independent triplicate studies; for MIC: read-out: Independent MIC
Pythium aphanodermatum = assay: Broth microdilution MIC of individual antifungals; settings: individual antifungal, 25% PDB, about 25° C., 72 hours, range over N independent triplicate studies
[5] = individual antifungal, 25% PDB, about 25° C., 72 hours, range over N independent triplicate studies

Compound | Independent MIC [1] [µg/mL] | Independent MIC (Alternaria solani) | Independent MIC (Aspergillus fumigatus) | Independent MIC (Botrytis cinerea 10-1728) | Independent MIC (Mucor sp.) | MIC [1] [µg/mL] | MIC (Aureobasidium pullulans) [µg/mL] | MIC (Aspergillus flavus; [5]) [µg/mL] | MIC (Aspergillus fumigatus) [µg/mL] | MIC (Aspergillus niger) [µg/mL] | MIC (Sclerotinia homoeocarpa) [µg/mL] | MIC (Botrytis cinerea 10-1728) [µg/mL] | MIC (Botrytis cinerea B17) [µg/mL] | MIC (Fusarium graminearum; Fusarium graminearum) [µg/mL] | MIC (Fusarium verticillioides) [µg/mL] | MIC (Stachybotrys chartarum) [µg/mL] | MIC (Pythium aphanodermatum) [µg/mL] | MIC (Magnaporthe grisea) [µg/mL] | MIC (Phytophthora pini) [µg/mL] | MIC (Mucor sp.) [µg/mL] | further results
[Cl][Sn]([c]1ccccc1)([c]1ccccc1)[c]1ccccc1 [Fentin Chloride, fentin chloride] | 50 | (10-12.5) μg/mL | 0.78 µg/mL | (50-100) μg/mL | (1-1.56) μg/mL |  |  |  |  |  |  |  |  |  |  |  |  |  |  |  | Independent MIC (Aspergillus flavus; [5]): (0.78-1) μg/mL; Independent MIC (Aspergillus niger): (0.78-1) μg/mL; Independent MIC (Sclerotinia homoeocarpa): 12.5 µg/mL; Independent MIC (Candida albicans): (0.78-1.56) μg/mL; Independent MIC (Fusarium graminearum): (50-200) μg/mL; Independent MIC (Fusarium verticillioides): (6.25-12.5) μg/mL; Independent MIC [2]: (0.78-3.12) μg/mL; Independent MIC (Rhizopus sp.): (0.39-0.78) μg/mL; Independent MIC (Magnaporthe grisea): 1.25 µg/mL; Independent MIC (Phytophthora pini): 0.098 µg/mL; Independent MIC (Rhizoctonia solani): (12.5-25)^ μg/mL; Independent MIC (Penicillium chrysogenum): (0.1-0.2) μg/mL; Independent MIC [3]: 1.56 µg/mL
c1ccc2[nH]c(-c3cscn3)nc2c1 [Thiabendazole] |  |  |  |  |  | 12.5 to 25 | 0.2 to 0.39 | 12.5 to 40 | 12.5 to 50 | 12.5 to 50 | 20 to 25 | 200 to 400 | 50 | 1.5 to 3.12 (≈ 7.45 to 15.5 µM) | 3 to 6.25 | 25 to 30 | 200 to 400 | 1.56 to 3.13 (≈ 7.75 to 15.6 µM) | 100 |  | MIC (Fusarium oxysporum ST33): 25 to 80 µg/mL; MIC [4]: 200 to 400 µg/mL; MIC (Penicillium chrysogenum): 0.375 to 0.39 µg/mL
COC(=O)NC(=S)Nc1ccccc1NC(=S)NC(=O)OC [Thiophanate-Methyl, thiophanate-methyl] |  |  |  |  |  | 25 to 50 | 0.1 to 0.39 |  | 50 to 100 | 25 | 0.5 to 1 | 200 to 400 |  | 100 to 400 (≈ 292 to 1170 µM) |  |  | 400 | 25 to 50 (≈ 73 to 146 µM) | 25 | 200 to 400 | MIC (Penicillium chrysogenum): 12.5 µg/mL
CO/C=C(/C(=O)OC)c1ccccc1Oc1cc(Oc2ccccc2C#N)ncn1 [Azoxystrobin, azoxystrobin] | 20 | 100 µg/mL | (50-100) μg/mL | (110-400) μg/mL | 200 µg/mL |  |  |  |  |  |  |  |  |  |  |  |  |  |  |  | Independent MIC (Botrytis cinerea B17): (12.5-25)^ μg/mL; Independent MIC (Fusarium graminearum; Fusarium graminearum, individual antifungal, 25% PDB, about 25° C., 72 hours, range over N independent triplicate studies): 400 µg/mL; Independent MIC (Stachybotrys chartarum): (25-50) μg/mL; Independent MIC (Pythium aphanodermatum): 6.25 µg/mL; Independent MIC (Phytophthora pini): 100 µg/mL; Independent MIC (Penicillium chrysogenum): (0.39-1.5) μg/mL
CC(C1CC1)C(O)(Cn1cncn1)c1ccc(Cl)cc1 (stereo not drawn) [Cyproconazole, cyproconazole] |  |  |  |  |  | 3.12 to 6 |  | 50 to 100 | 12.5 to 25 | 25 | 1.56 to 3.12 | 0.78 to 2 |  |  | 3 to 3.12 |  |  |  |  | 100 to 200 | MIC (Candida albicans): 100 to 400 µg/mL; MIC (Rhizopus sp.): 12.5 to 50 µg/mL; MIC (Rhizoctonia solani; read-out: Independent MIC): 6.25 to 12.5 µg/mL; MIC (Penicillium chrysogenum): 100 µg/mL; MIC [3]: 6.25 to 12.5 µg/mL
maneb | 25 | (25-50) μg/mL | 3.125 µg/mL | (12.5-40)^ μg/mL | (25-50) μg/mL |  |  |  |  |  |  |  |  |  |  |  |  |  |  |  | Independent MIC (Aspergillus flavus; [5]): (12.5-25)^ μg/mL; Independent MIC (Aspergillus niger): (50-100) μg/mL; Independent MIC (Sclerotinia homoeocarpa): 1.56 µg/mL; Independent MIC (Candida albicans): 1.56 µg/mL; Independent MIC (Fusarium graminearum): 12.5 µg/mL; Independent MIC (Fusarium verticillioides): 6.25 µg/mL; Independent MIC [2]: 25 µg/mL; Independent MIC (Rhizopus sp.): (50-100) μg/mL; Independent MIC (Magnaporthe grisea): 1.56 µg/mL; Independent MIC (Phytophthora pini): 3.125 µg/mL; Independent MIC (Rhizoctonia solani): (50-100) μg/mL; Independent MIC (Penicillium chrysogenum): 25 µg/mL; Independent MIC [3]: (3.13-6.25) μg/mL
CC1(C(=O)Nc2ccc(O)c(Cl)c2Cl)CCCCC1 [Fenhexamid, fenhexamid] |  |  |  |  |  | 100 to 200 | 100 |  | 400 |  | 64 | 200 | 4 | 25 to 50 (≈ 82.7 to 165 µM) |  | 12.5 | 0.78 to 0.8 | 3.12 (≈ 10.3 µM) | 50 | 100 | MIC (Alternaria solani): 100 to 200 µg/mL; MIC (Aspergillus flavus; 72 h): 3.12 to 6.25 µg/mL; MIC [3]: 100 to 200 µg/mL
Nc1ccc2c(c1)COB2O [B2, 5-Amino-1,3-dihydro-2,1-benzoxaborol-1-ol] |  |  |  |  |  | > 32 | > 32 | > 32 | > 32 | > 32 | > 32 | > 32 | > 32 |  | > 32 | > 32 |  |  |  | > 32 | MIC (Alternaria solani): > 32 µg/mL; MIC [2]: > 32 µg/mL; MIC (Fusarium oxysporum ST33): > 32 µg/mL; MIC [4]: > 32 µg/mL; MIC (Rhizopus sp.): > 32 µg/mL
Cc1cc(C)nc(Nc2ccccc2)n1 [Pyrimethanil, pyrimethanil] |  |  |  |  |  | 6.25 to 12.5 | 25 to 50 | 25 | 0.78 to 1 | 100 to 200 | 50 to 100 | 50 to 100 | 50 to 100 | 200 (≈ 1000 µM) | 200 | 50 to 90 | 100 to 200 | 100 to 200 (≈ 502 to 1000 µM) | 100 | 200 | MIC (Alternaria solani): 100 to 200 µg/mL; MIC (Candida albicans): 200 µg/mL; MIC [2]: 200 to 400 µg/mL; MIC (Fusarium oxysporum ST33): 200 µg/mL; MIC [4]: 200 µg/mL; MIC (Rhizopus sp.): 200 to 400 µg/mL
